# Columns and labels:
# A673 cells = assay: Cell viability and proliferation, A673 cells (crystal violet); format: cell-based; settings: cell proliferation IC50 in NHDF cells over A673 cells, 72 h
# Experimental: Small molecule splicing modulators were tested in a dose-response assay using A673 cells and NHDF cells.
# A673 cells or NHDF cells were first plated in 96-well plastic tissue culture plates (10,000 cells per well). The cells were treated with vehicle alone (DMSO), or increasing concentrations of SMSM compounds for 72 h. Following treatment, cell proliferation was determined using a crystal violet assay. The relative cell proliferation at each concentration was determined.
# [1] = Maximum tolerable dose study (survival, body weight); format: in vivo; settings: mice
# Experimental: Survival of mice after administration of SMSMs after 10 or 11 days was assessed.
# Tolerance of the drug treatments was determined by measuring the weight of the mice during the period of drug administration. Body weight was measured prior to tumor inoculation and prior to the treatment administration and then daily. The changes in the final weight of the mice for the SMSM treatments were determined.
# A673 xenografts = A673 xenografts in nude mice, tumor growth inhibition; format: in vivo; settings: A673 xenograft (FIGS. 20A-B)
# Experimental: Dose range and time course studies comparing anti-neoplastic effects of SMSM−167 and SMSM−151 against vehicle were conducted.
# Female NCrNu mice were used. Age range of enrolment was 7-10 weeks. A total of 75 animals were for the studies.
# The A673 tumor cell line was maintained in vitro as a monolayer culture. […] The cells growing in an exponential growth phase were harvested and counted for tumor inoculation.
# Each mouse were inoculated into a right flank with the single cell suspension of 95% viable tumor cells (5×10^6 cells/mouse) in serum-free RPMI 1640 Media for tumor development. Treatments were administered when mean tumor size reached approximately 75 mm^3.
# Before commencement of treatment, all animals were weighed and assigned to treatment groups using a randomization procedure. Mice were randomized into groups based upon their tumor sizes to ensure that each group had approximately the same mean tumor size and range of tumor size.
# After inoculation, the animals were checked daily for morbidity and mortality. At the time of routine monitoring, the animals were checked for any effects of tumor growth on normal behavior such as mobility, food and water consumption, body weight gain/loss, eye/hair matting and any other abnormal effects. Deaths and observed clinical signs were recorded.
# Body weight were measured prior to tumor inoculation and prior to the treatment administration and then daily. Tumor size were measured 2-3 times per week in two dimensions using a caliper, and the volume were expressed in mm^3 using the formula: V=0.5×a×b^2 where a and b are the long and short diameters of the tumor, respectively.
# (§1) Studies were terminated when the tumor size in the vehicle treated group reached 2,000 mm^3. Each mouse was bled at 2 hrs after the last dose and at least 50 μl of plasma were collected from each mouse. All of the collected plasma samples and retainer dosing solutions for each dose level were used for bioanalytical measurements. All tumors were also collected and weighed. One necrosis-free tumor fragment of approximately 50 mg was taken from each tumor and flash-frozen for RNA isolation. The remaining tumor was flash frozen for PK analysis.
# (§2) Studies were performed to assess the effects of in vivo SMSM treatment on glioblastoma, breast, pancreatic, prostate, melanoma, lymphoma and Ewing sarcoma tumors. Studies were also performed to assess the effects of in vivo SMSM treatment on mRNA levels. Immunocompromised nude mice with pre-existing glioblastoma, breast, pancreatic, prostate, melanoma, lymphoma and Ewing sarcoma xenografts were treated with vehicle or SMSMs. Tumor tissues from subcutaneous xenografts were broken into a powder using a BioPulverizer (Biospec Products, Inc.). After SMSM treatment, mRNA was isolated from the xenografts and was analyzed by qRT-PCR.
# as §1, with “Tumor size was measured 2 times per week in two dimensions using a caliper. Studies” for “Studies”, “plasma was” for “plasma were”
# The effects of in vivo SMSM treatments on pre-existing subcutaneous glioblastoma, breast, pancreatic, prostate, melanoma, lymphoma and Ewing sarcoma xenografts were assessed. For these in vivo experiments, 1×10^6Raji, A375, A673, MDA-MB-231, BxPC-3, PC-3 or U87 (cells re-suspended in 100 μl PBS were subcutaneously injected into the flanks of nude mice. When the tumor reached approximately 100 mm^3 (volume=(¾)(π)(length/2)(width/2)^2), the treatments indicated in the tables below were initiated. […]
# A375 xenografts = A375 xenografts in nude mice, tumor growth inhibition; format: in vivo; settings: A-375 xenograft (FIGS. 21A-B)
# Experimental: as §2
# as §1, with “Tumor size was measured 2 times per week in two dimensions using a caliper. Studies” for “Studies”, “plasma was” for “plasma were”
# The effects of in vivo SMSM treatments on pre-existing subcutaneous glioblastoma, breast, pancreatic, prostate, melanoma, lymphoma and Ewing sarcoma xenografts were assessed. For these in vivo experiments, 1×10^6Raji, A375, A673, MDA-MB-231, BxPC-3, PC-3 or U87 (cells re-suspended in 100 μl PBS were subcutaneously injected into the flanks of nude mice. When the tumor reached approximately 100 mm^3 (volume=(¾)(π)(length/2)(width/2)^2), the treatments indicated in the tables below were initiated.
structure (smiles),measurement,setting,value
"CN(c1ccc(-c2ccc(-c3cn[nH]c3)cc2O)nn1)[C@H]1C[C@]2(C)CC[C@](C)(C1)N2 [compound 151, 2-(6-(((1R,3s,5S)-1,5-dimethyl-8-azabicyclo[3.2.1]octan-3-yl)(methyl)ami-no)pyridazin-3-yl)-5-(1H-pyrazol-4-yl)phenol]",Ratio NHDF/A673 IC50,A673 cells,>350
same,Outcome,"[1]; IP, 1 mg/kg, QDx11",All survived
same,Outcome,"[1]; PO, 10 mg/kg, BIDx11",All survived
same,Outcome,"[1]; PO, 10 mg/kg, QDx11",All survived
same,Tumor Growth Inhibition (TGI) (%),"A673 xenografts; 10 mg/kg BID p.o., Day 3",28.03%
same,Tumor Growth Inhibition (TGI) (%),"A673 xenografts; 10 mg/kg BID p.o., Day 6",34.29%
same,Tumor Growth Inhibition (TGI) (%),"A673 xenografts; 10 mg/kg BID p.o., Day 10",22.09%
same,Tumor Growth Inhibition (TGI) (%),"A673 xenografts; 10 mg/kg BID p.o., Day 13",30.12%
same,Tumor Growth Inhibition (TGI) (%),"A673 xenografts; 20 mg/kg BID p.o., Day 3",37.61%
same,Tumor Growth Inhibition (TGI) (%),"A673 xenografts; 20 mg/kg BID p.o., Day 6",45.97%
same,Tumor Growth Inhibition (TGI) (%),"A673 xenografts; 20 mg/kg BID p.o., Day 10",55.24%
same,Tumor Growth Inhibition (TGI) (%),"A673 xenografts; 20 mg/kg BID p.o., Day 13",71.29%
same,Tumor Growth Inhibition (TGI) (%),"A673 xenografts; 30 mg/kg QD p.o., Day 3",23.90%
same,Tumor Growth Inhibition (TGI) (%),"A673 xenografts; 30 mg/kg QD p.o., Day 6",34.28%
same,Tumor Growth Inhibition (TGI) (%),"A673 xenografts; 30 mg/kg QD p.o., Day 10",17.11%
same,Tumor Growth Inhibition (TGI) (%),"A673 xenografts; 30 mg/kg QD p.o., Day 13",23.52%
same,Tumor Growth Inhibition (TGI) (%),"A375 xenografts; 3 mg/kg i.p. QD *21 days, D4",15.21%
same,Tumor Growth Inhibition (TGI) (%),"A375 xenografts; 3 mg/kg i.p. QD *21 days, D7",18.86%
same,Tumor Growth Inhibition (TGI) (%),"A375 xenografts; 3 mg/kg i.p. QD *21 days, D11",27.48%
same,Tumor Growth Inhibition (TGI) (%),"A375 xenografts; 3 mg/kg i.p. QD *21 days, D14",41.30%
same,Tumor Growth Inhibition (TGI) (%),"A375 xenografts; 3 mg/kg i.p. QD *21 days, D18",62.06%
same,Tumor Growth Inhibition (TGI) (%),"A375 xenografts; 3 mg/kg i.p. QD *21 days, D21",55.77%
same,Tumor Growth Inhibition (TGI) (%),"A375 xenografts; 10 mg/kg p.o. BID *21 days, D4",22.49%
same,Tumor Growth Inhibition (TGI) (%),"A375 xenografts; 10 mg/kg p.o. BID *21 days, D7",28.98%
same,Tumor Growth Inhibition (TGI) (%),"A375 xenografts; 10 mg/kg p.o. BID *21 days, D11",48.28%
same,Tumor Growth Inhibition (TGI) (%),"A375 xenografts; 10 mg/kg p.o. BID *21 days, D14",49.06%
same,Tumor Growth Inhibition (TGI) (%),"A375 xenografts; 10 mg/kg p.o. BID *21 days, D18",58.41%
same,Tumor Growth Inhibition (TGI) (%),"A375 xenografts; 10 mg/kg p.o. BID *21 days, D21",50.32%
same,Tumor Growth Inhibition (TGI) (%),"A375 xenografts; SMSM-151 group 1.5 mg/kg i.p. BID *21 days, D4",21.81%
same,Tumor Growth Inhibition (TGI) (%),"A375 xenografts; SMSM-151 group 1.5 mg/kg i.p. BID *21 days, D7",13.08%
same,Tumor Growth Inhibition (TGI) (%),"A375 xenografts; SMSM-151 group 1.5 mg/kg i.p. BID *21 days, D11",24.17%
same,Tumor Growth Inhibition (TGI) (%),"A375 xenografts; SMSM-151 group 1.5 mg/kg i.p. BID *21 days, D14",34.70%
same,Tumor Growth Inhibition (TGI) (%),"A375 xenografts; SMSM-151 group 1.5 mg/kg i.p. BID *21 days, D18",39.27%
same,Tumor Growth Inhibition (TGI) (%),"A375 xenografts; SMSM-151 group 1.5 mg/kg i.p. BID *21 days, D21",36.89%

# — patent US11326165B1, “Methods and compositions for modulating splicing” (SKYHAWK THERAPEUTICS, INC., priority 2017, dated 2022)
